{"source": "paper PMC8067766", "about": "(International Journal of Molecular Sciences, 2021)", "key": {"[1]": {"assay": "Transmission electron microscopy of fibrils", "format": "physicochemical", "details": "1.0 mg/mL in PBS pH 7.4, TEM, uranyl acetate stain", "protocol": "(§1) All peptides were dissolved in Eppendorf Low Retention Tubes in 1.0 mL of PBS pH 7.4. The concentration of the solutions of peptides was 1.0 mg/mL. The peptides were incubated at 37 °C with constant orbital shaking. Aliquots for the evaluation of the fibrillization process were taken before incubation and after 1, 2, 3, 6, 14, and 21 days or only after 7 days, depending on the experiments.\nPeptide samples (5 µL) were applied on a glow-discharged carbon-coated copper grid (400 mesh). After 1 min of adsorption, excess liquid was removed using filter paper, and the samples were stained with 2% (v/v) aqueous uranyl acetate. The samples were examined with a TECNAI SPIRIT BIO TWIN FEI (FEI Company, Hillsboro, OR, USA) at 120 kV, with nominal magnifications between 11,500 and 39,000. The assay was performed for samples before (after dissolution) and after 3 days of incubation."}, "[2]": {"assay": "Thioflavin T fluorescence assay", "format": "physicochemical", "details": "1.0 mg/mL in PBS pH 7.4, 37 °C, orbital shaking; ThT excitation 420 nm, emission 482 nm", "protocol": "as §1\nTen microliters of peptide solution incubated under fibrillization conditions (see Fibril preparation) were mixed with 10 µL of 1.5 mM ThT in water and 90 µL of PBS pH 7.4. The fluorescence was measured on a Tecan Infinite 200Pro (Tecan Group Ltd., Männedorf, Switzerland) spectrofluorometer in 96-well plates (Costar Black®), with excitation wavelength set at 420 nm and emission in the range of 455 to 600 nm."}, "[3]": {"assay": "Circular dichroism over incubation", "format": "physicochemical", "details": "1.0 mg/mL in PBS pH 7.4, 37 °C with agitation, up to 14 days; centrifuged clear solution, far-UV 195-250 nm", "protocol": "Circular dichroism spectra were recorded on a Jasco J-815 spectropolarimeter (Jasco, Victoria, BC, Canada). Far-UV spectra (195–250 nm) were registered for all peptides dissolved in PBS pH 7.4 at a concentration of 1.0 mg/mL and incubated at 37 °C with agitation. Spectra were recorded before and after 1,2, 3, 7, 10 and 14 days of incubation. All spectra were corrected for the buffer signal. The CD spectra were recorded three times, using a 0.2 mm cell."}, "[4]": {"biological_target": "T1, human neutrophil elastase (Homo sapiens, UniProt P08246)", "T1 construct": "purchased Sigma Aldrich", "T1 sequence (P08246 30-267)": "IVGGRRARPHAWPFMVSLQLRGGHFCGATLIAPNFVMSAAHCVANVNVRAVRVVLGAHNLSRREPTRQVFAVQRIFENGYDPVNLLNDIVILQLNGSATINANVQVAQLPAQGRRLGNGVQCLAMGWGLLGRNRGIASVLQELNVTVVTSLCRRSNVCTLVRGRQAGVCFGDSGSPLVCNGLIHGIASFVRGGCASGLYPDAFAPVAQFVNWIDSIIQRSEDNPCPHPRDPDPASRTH", "assay": "Incubation with neutrophil elastase (release of active sequence)", "format": "in vitro ADME", "details": "non-fibrillated peptide 1.0 mM, 0.1 M Tris HCl, 500 mM NaCl, 0.05% Triton X-100, 20 mM CaCl2, pH 7.5; enzyme 150 nM; 30 min, 37 °C; RP-UHPLC (PDA) and LC-MS", "protocol": "An enzymatic stability study was performed using the human neutrophil elastase enzyme (Sigma Aldrich, St. Louis, MO, USA). The peptides were dissolved in a buffer (with composition: 0.1 M Tris HCl, 500 mM NaCl, 0.05% Triton X-100, 20 mM CaCl2, pH 7.5), to a final concentration 1.0 mM. The fibrils formed in the aggregation process were dissolved in PBS at pH 7.4 to a concentration of 1 mg/mL. The enzyme was added to the peptide/fibril solution to a concentration of 150 nM and incubated for 30 min (peptides) or 60 min (fibrils), at 37 °C, with agitation. A 10% aqueous TFA solution was added to the reaction mixture to stop the digestion. The progress of the reaction was monitored by RP-UHPLC with a PDA (Photo Diode Array) detector on a Kinetex C8 column (2.6 μm, 100 Å 2.6 × 100 mm, Phenomenex, Torrance, CA, USA), at a gradient of 0–50% B for 15 min, and by LC-MS."}, "[5]": {"assay": "Peptide stability in human plasma (TCA assay)", "format": "in vitro ADME", "details": "human plasma (EDTA), 37 °C, 300 rpm, TCA 3% precipitation, RP-HPLC UV 223 nm, at least triplicates", "protocol": "Peptide stability tests were performed according to a TCA stability assay based on the method used by Nguyen et al.. Peptides were dissolved in water, mixed with human plasma* to a final concentration of 1.0 mg/mL, and incubated at 37 °C with agitation (300 rpm, Thermomixer, Eppendorf AG, Hamburg, Germany). After 0, 1, 2, 3, 6 and 24 h, 80 μL of the solution was taken and mixed with 15% TCA to obtain a final concentration of 3% (v/v). The samples were incubated in ice for 10 min and centrifuged for 10 min (12,000 rpm, Microfuge 16, Beckman Coulter, Brea, CA, USA). Supernatants were analyzed by RP-HPLC on column using a linear gradient of acetonitrile (5–100% over 15 min) with detection at 223 nm. Peptides were quantified by their peak areas relative to the initial peak areas (0 min). All stability tests were performed at least in triplicates. As control samples peptides dissolved only in water under the same conditions were used. To additionally assess the changes in the incubated samples (peptide degradation) mass spectrometry analysis was used. LC-MS experiments were performed using ESI-IT-TOF (Shimadzu, Kyoto, Japan).\n* Blood was collected from healthy anonymous donors and EDTA was then used as an anticoagulant. The procedure was approved by the Independent Bioethics Commission for Research of the Medical University of Gdańsk (NKBBN/387/2014)."}, "46BR.1N fibroblasts [6]": {"system": "46BR.1N fibroblasts", "assay": "XTT proliferation assay, fibroblasts", "format": "cell-based, human", "details": "for inhibition of proliferation (XTT), in words: up to 25 µg/mL", "protocol": "(§2) Immortalized human HaCaT [69, 70] keratinocytes (DKFZ, Heidelberg, Germany) and the human dermal fibroblast cell line 46BR.1N (ECACC, Sigma Aldrich, St. Louis, MO, USA) were used in the study. Cells were routinely grown in culture flasks (growth surface area 25 cm^2) in Dulbecco’s modified Eagle medium (DMEM, Sigma Aldrich, St. Louis, MO, USA), with 4500 mg/L of glucose, 584 mg/L of L-glutamine, sodium pyruvate, and sodium bicarbonate, supplemented with 10% FBS and 100 units/mL of penicillin and 100 μg/mL of streptomycin (Sigma Aldrich, St. Louis, MO, USA), under a humidified atmosphere with 5% CO2 at 37 °C. Medium was changed every 2–3 days.\n(§3) Lactate dehydrogenase (LDH) activity in cell culture supernatants (Takara, Japan, cat. No. MK401) was measured to determine the cytotoxicity of the tested compounds, and the XTT assay was used to evaluate their effect on cell proliferation. Both tests were performed as previously described according to manufacturers’ instructions. Briefly, cells were seeded into 96-well plates, at a density of 5000 cells per well, in DMEM supplemented with 10% FBS. After 24 h the medium was exchanged for serum-free DMEM containing appropriate concentrations of the tested compounds. Supernatants for LDH analysis were collected after 48 h of incubation. The XTT assay was performed after 48 and 72 h of incubation.\n(§4) For the analysis of the effect of the peptide fibrils on skin cells, the experiment was performed as described, but the cells were stimulated with 10 µL of the fibrils (50 µg/mL) and incubated for 48 h, when the LDH and XTT assay were then performed."}, "HaCaT keratinocytes": {"system": "HaCaT keratinocytes", "assay": "XTT proliferation assay, keratinocytes", "format": "cell-based, human", "details": "for inhibition of proliferation (XTT), in words: up to 25 µg/mL", "protocol": "as §2, §3, §4"}, "46BR.1N fibroblasts [7]": {"system": "46BR.1N fibroblasts", "assay": "LDH cytotoxicity assay, fibroblasts", "format": "cell-based, human", "details": "non-fibrillated peptide 25 µg/mL, 48 h, serum-free DMEM; n = 16", "protocol": "as §2\nLactate dehydrogenase (LDH) activity in cell culture supernatants (Takara, Japan, cat. No. MK401) was measured to determine the cytotoxicity of the tested compounds, and the XTT assay was used to evaluate their effect on cell proliferation. Both tests were performed as previously described according to manufacturers’ instructions. Briefly, cells were seeded into 96-well plates, at a density of 5000 cells per well, in DMEM supplemented with 10% FBS. After 24 h the medium was exchanged for serum-free DMEM containing appropriate concentrations of the tested compounds. Supernatants for LDH analysis were collected after 48 h of incubation. The XTT assay was performed after 48 and 72 h of incubation. […]"}, "[8]": {"system": "human neutrophil elastase (Sigma Aldrich), 150 nM", "assay": "human neutrophil elastase in buffer (0.1 M Tris HCl, 500 mM NaCl, 0.05% Triton X-100, 20 mM CaCl2, pH 7.5); non-fibrillated peptides", "details": "37 °C, up to 30 min"}, "human plasma": {"assay": "human plasma", "details": "37 °C, up to 24 h"}, "[9]": {"details": "non-fibrillated peptide, 48 and 72 h, serum-free DMEM, n = 16"}, "[10]": {"details": "non-fibrillated peptide, 48 and 72 h"}}, "note": "Where a SMILES comes first, the peptide text is derived from it."}
{"compound": "CC[C@H](C)[C@H](NC(=O)CNC(=O)[C@H](C)NC(=O)[C@H](CCC(N)=O)NC(=O)CNC(=O)CNC(=O)CNC(=O)[C@@H](NC(=O)[C@@H]1CCCN1C(=O)[C@H](C)NC(=O)[C@H](C)NC(=O)CNC(=O)CNC(=O)CNC(=O)[C@H](CCCNC(=N)N)NC(=O)[C@H](Cc1ccc(O)cc1)NC(=O)[C@@H](NC(=O)[C@H](CCCCN)NC(=O)[C@H](CC(=O)O)NC(=O)[C@H](CCCNC(=N)N)NC(C)=O)C(C)C)C(C)C)C(=O)N[C@H](C(=O)N[C@H](C(N)=O)C(C)C)C(C)C", "note": "[FC-IM] (Ac-RDKVYRGGGAAPVGGGQAGIVV-NH2)", "values": [{"measurement": "fibril thickness (TEM)", "setting": "[1]", "result": "10–12 nm"}, {"measurement": "time course of ThT fluorescence increase (fibrillization)", "setting": "[2]", "result": "required at least three days of incubation"}, {"measurement": "secondary structure by CD", "setting": "[3]", "result": "disordered structure"}, {"measurement": "Degradation Yes/No by human neutrophil elastase", "setting": "[4]", "result": "Yes"}, {"measurement": "metabolised at 24 h, 1 mg/mL", "setting": "[5]; peak area relative to 0 min, read-out: peptide loss in human plasma relative to the initial concentration", "result": 7, "unit": "%"}, {"measurement": "increase in proliferation by fibrils compared to control (XTT)", "setting": "46BR.1N fibroblasts [6]; fibrillated form, 10 µL of fibrils (50 µg/mL), 48 h, three independent experiments", "result": "did not stimulate proliferation of either tested cell line"}, {"measurement": "increase in proliferation compared to the control (XTT)", "setting": "46BR.1N fibroblasts [6]; [9]", "result": "20–30%"}, {"measurement": "inhibition of proliferation (XTT), in words", "setting": "46BR.1N fibroblasts [6]; [10]", "result": "Slight inhibition of the proliferation of fibroblasts was seen at a concentration of 25 µg/mL after 72 h incubation"}, {"measurement": "increase in proliferation by fibrils compared to control (XTT)", "setting": "HaCaT keratinocytes; fibrillated form, 10 µL of fibrils (50 µg/mL), 48 h, not statistically significant", "result": "did not stimulate proliferation of either tested cell line"}, {"measurement": "increase in proliferation compared to the control (XTT)", "setting": "HaCaT keratinocytes; [9]", "result": "20–30%"}, {"measurement": "inhibition of proliferation (XTT), in words", "setting": "HaCaT keratinocytes; [10]", "result": "did not decrease the proliferation of HaCaT keratinocytes"}]}
{"compound": "CC[C@H](C)[C@H](NC(=O)CNC(=O)[C@H](C)NC(=O)[C@@H](N)CCC(N)=O)C(=O)N[C@H](C(=O)N[C@H](C(N)=O)C(C)C)C(C)C", "note": "[FC] (H-QAGIVV-NH2)", "values": [{"measurement": "remaining at 24 h, 1 mg/mL", "setting": "[5]; rapid precipitation of peptide noted, read-out: peptide remained in solution in human plasma", "result": 11, "unit": "%"}, {"measurement": "cytotoxicity (LDH release)", "setting": "46BR.1N fibroblasts [7]", "result": "about 5%"}, {"measurement": "inhibition of proliferation (XTT), in words", "setting": "46BR.1N fibroblasts [6]; [10]", "result": "Inhibition of the proliferation of both cell lines was not observed"}, {"measurement": "inhibition of proliferation (XTT), in words", "setting": "HaCaT keratinocytes; [10]", "result": "Inhibition of the proliferation of both cell lines was not observed"}]}
{"compound": "Ac-GHK-GGG-AAPV-GGG-QAGIVV-NH2", "values": [{"measurement": "cleaved bond", "setting": "[8]", "result": "V-G, major, 30 min"}]}
{"compound": "Ac-K GHK-GGG-AAPV-GGG-QAGIVV-NH2", "values": [{"measurement": "cleaved bond", "setting": "[8]", "result": "V-G, major, 30 min"}]}
{"compound": "Ac-RDKVYR GGG-AAPV-GGG-QAGIVV-NH2", "values": [{"measurement": "not cleaved", "setting": "human plasma", "result": 7, "unit": "% peptide loss after 24 h"}, {"measurement": "cleaved bond", "setting": "[8]", "result": "V-G, major, 30 min"}, {"measurement": "fragment found", "setting": "[8]", "result": "Ac-RDKVYRGGGAAPVG-COOH"}]}
